This assay addresses T1, human Glx-I enzyme (Homo sapiens, UniProt Q04760).
T1 sequence (Q04760 2-184 limits assumed): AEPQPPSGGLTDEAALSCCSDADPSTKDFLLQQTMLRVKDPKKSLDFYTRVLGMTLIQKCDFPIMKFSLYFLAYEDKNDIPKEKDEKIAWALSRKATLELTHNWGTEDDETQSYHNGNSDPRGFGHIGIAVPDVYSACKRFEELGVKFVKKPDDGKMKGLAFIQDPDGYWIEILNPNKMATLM
Put plainly: Glx-I inhibitory activity in vitro. It counts as biochemical. The following applies: for inhibition at 25 µM: read-out: % Inhibition at 25 μM.

Usually IC50 stands for the concentration that inhibits the measured activity by half. A higher IC50 goes with weaker potency. The term inhibition denotes the relative decrease from the control value, in per cent. Consider `Nc1ccc(/N=N/c2ccc(S(N)(=O)=O)cc2)c2cc(O)ccc12` [Compound 13, (E)-4-((4-amino-7-hydroxynaphthalen-1-yl)diazenyl)benzenesulfonamide], for which the concentration for half-maximal inhibition (IC50) was determined as 39.1 ± 5.31 µM and the inhibition at 25 µM is 46.2%.
Taken in the same sequence, the figures for `NS(=O)(=O)c1ccc(/N=N/c2ccc(O)c(C(=O)O)c2)cc1` [Compound 26, (E)-2-hydroxy-5-((4-sulfamoylphenyl)diazenyl)benzoic acid] were 0.39 ± 0.03 µM and 97.4%.

Values taken from publication PMC8976160 (Drug Design, Development and Therapy, 2022).
